Where two headings read alike, the source gives them in different places.
What was measured:
[1] = target: T1, Ros1 enzyme (Homo sapiens, UniProt P08922); experiment: Ros1 enzymatic assay; format: biochemical; conditions: Ros1 enzymatic assay; read-out: ROS1 pIC50 (converted)
T1 construct: 0.5 μg/ml Ros1 enzyme
In short: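 First, compounds meet Ros1 enzyme mix plus substrate mix containing IRS-Tide and 33P-labelled ATP at 20 μM. Next, incubation lasts 120 minutes at room temperature. Then EDTA stop buffer with streptavidin beads is added for 15 minutes, and bead-bound radioactivity is imaged.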

[2] = target: T2, Ba/F3 cells containing Ros1 wild-type protein (Homo sapiens, UniProt P08922, cells depend on it, form not given); experiment: Ba/F3-Ros1 cell proliferation assay, wild-type Ros1; format: cell-based, murine; conditions: without IL-3
T2 construct: The background only speaks of 'a number of different unrelated proteins' and names SLC34A2-ROS1 for HCC78 cells
In short: (§1)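 Ba/F3 cells expressing wild-type, L2026M or G2032R Ros1, 20000 cells/well in phenol red-free RPMI-1640 with 10% FBS, 2 mM L-glutamine, exposed to compound for 24 h at 37 °C, 5% CO2. Viability read by Alamar Blue (resazurin) fluorescence, ex 540/em 590 nm, after 4 h further incubation.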

[3] = target: Ba/F3 cells containing Ros1 with a mutation at the gatekeeper residue (L2026M) (Homo sapiens, UniProt P08922, L2026M, cells depend on it, form not given); experiment: Ba/F3-Ros1 cell proliferation assay, L2026M gatekeeper mutant; format: cell-based, murine; conditions: without IL-3
In short: as §1

[4] = system: Ba/F3 cells containing Ros1 wild-type protein + IL-3; experiment: Ba/F3-Ros1 cell proliferation counter-screen, wild-type protein in the presence of 10 ng/ml murine IL-3; format: cell-based; conditions: Mus musculus, BaF3, 24 h, read-out: BaF3-ROS1 + IL3 pIC50 (converted)
In short: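 Compounds were dispensed from DMSO into plates, and 20000 Ba/F3 cells carrying wild-type Ros1 were added in phenol red-free RPMI-1640 with 10% FBS plus 10 ng/ml murine IL-3. After 24 h at 37 °C, Alamar Blue was added for 4 h and fluorescence recorded.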

[5] = system: HCC78 non-small cell lung cancer cells; experiment: HCC78 cell proliferation assay; format: cell-based; conditions: for EC50: Homo sapiens, HCC78, 96 h, read-out: HCC-78 PROL pEC50 (converted)
Description: HCC78 Cell Proliferation Assay
Approximately 1000 HCC78 non-small cell lung cancer cells in 180 μl of cell culture medium (RPMI-1640, 10% FBS, 2 mM L-Glutamine, 10 mM Hepes, 1 mM sodium pyruvate, 4.5 g/L glucose, 1.5 g/L sodium bicarbonate, 25 μg/ml Gentamycin) were seeded in each well of a 96-well polystyrene, tissue-culture treated plate and incubated at 37° C. and 5% CO2. After 24 hours, compounds were diluted in cell culture medium from which 20 μl was added to the wells containing cells and incubated for 4 days at 37° C. and 5% CO2. A 5 mg/ml solution of the tetrazolium dye MTT was prepared in PBS (phosphate-buffered saline) and 25 μl was added to each well. After 2 hours the medium was removed and replaced by 125 μL of 4/1 DMSO/glycine buffer (0.1M glycine, 0.1M NaCl, pH 10.5) before absorbance was determined at 538 nm.

[6] = counter-screen, wild-type, 10 ng/ml murine IL-3

T1 sequence (P08922 28-2347): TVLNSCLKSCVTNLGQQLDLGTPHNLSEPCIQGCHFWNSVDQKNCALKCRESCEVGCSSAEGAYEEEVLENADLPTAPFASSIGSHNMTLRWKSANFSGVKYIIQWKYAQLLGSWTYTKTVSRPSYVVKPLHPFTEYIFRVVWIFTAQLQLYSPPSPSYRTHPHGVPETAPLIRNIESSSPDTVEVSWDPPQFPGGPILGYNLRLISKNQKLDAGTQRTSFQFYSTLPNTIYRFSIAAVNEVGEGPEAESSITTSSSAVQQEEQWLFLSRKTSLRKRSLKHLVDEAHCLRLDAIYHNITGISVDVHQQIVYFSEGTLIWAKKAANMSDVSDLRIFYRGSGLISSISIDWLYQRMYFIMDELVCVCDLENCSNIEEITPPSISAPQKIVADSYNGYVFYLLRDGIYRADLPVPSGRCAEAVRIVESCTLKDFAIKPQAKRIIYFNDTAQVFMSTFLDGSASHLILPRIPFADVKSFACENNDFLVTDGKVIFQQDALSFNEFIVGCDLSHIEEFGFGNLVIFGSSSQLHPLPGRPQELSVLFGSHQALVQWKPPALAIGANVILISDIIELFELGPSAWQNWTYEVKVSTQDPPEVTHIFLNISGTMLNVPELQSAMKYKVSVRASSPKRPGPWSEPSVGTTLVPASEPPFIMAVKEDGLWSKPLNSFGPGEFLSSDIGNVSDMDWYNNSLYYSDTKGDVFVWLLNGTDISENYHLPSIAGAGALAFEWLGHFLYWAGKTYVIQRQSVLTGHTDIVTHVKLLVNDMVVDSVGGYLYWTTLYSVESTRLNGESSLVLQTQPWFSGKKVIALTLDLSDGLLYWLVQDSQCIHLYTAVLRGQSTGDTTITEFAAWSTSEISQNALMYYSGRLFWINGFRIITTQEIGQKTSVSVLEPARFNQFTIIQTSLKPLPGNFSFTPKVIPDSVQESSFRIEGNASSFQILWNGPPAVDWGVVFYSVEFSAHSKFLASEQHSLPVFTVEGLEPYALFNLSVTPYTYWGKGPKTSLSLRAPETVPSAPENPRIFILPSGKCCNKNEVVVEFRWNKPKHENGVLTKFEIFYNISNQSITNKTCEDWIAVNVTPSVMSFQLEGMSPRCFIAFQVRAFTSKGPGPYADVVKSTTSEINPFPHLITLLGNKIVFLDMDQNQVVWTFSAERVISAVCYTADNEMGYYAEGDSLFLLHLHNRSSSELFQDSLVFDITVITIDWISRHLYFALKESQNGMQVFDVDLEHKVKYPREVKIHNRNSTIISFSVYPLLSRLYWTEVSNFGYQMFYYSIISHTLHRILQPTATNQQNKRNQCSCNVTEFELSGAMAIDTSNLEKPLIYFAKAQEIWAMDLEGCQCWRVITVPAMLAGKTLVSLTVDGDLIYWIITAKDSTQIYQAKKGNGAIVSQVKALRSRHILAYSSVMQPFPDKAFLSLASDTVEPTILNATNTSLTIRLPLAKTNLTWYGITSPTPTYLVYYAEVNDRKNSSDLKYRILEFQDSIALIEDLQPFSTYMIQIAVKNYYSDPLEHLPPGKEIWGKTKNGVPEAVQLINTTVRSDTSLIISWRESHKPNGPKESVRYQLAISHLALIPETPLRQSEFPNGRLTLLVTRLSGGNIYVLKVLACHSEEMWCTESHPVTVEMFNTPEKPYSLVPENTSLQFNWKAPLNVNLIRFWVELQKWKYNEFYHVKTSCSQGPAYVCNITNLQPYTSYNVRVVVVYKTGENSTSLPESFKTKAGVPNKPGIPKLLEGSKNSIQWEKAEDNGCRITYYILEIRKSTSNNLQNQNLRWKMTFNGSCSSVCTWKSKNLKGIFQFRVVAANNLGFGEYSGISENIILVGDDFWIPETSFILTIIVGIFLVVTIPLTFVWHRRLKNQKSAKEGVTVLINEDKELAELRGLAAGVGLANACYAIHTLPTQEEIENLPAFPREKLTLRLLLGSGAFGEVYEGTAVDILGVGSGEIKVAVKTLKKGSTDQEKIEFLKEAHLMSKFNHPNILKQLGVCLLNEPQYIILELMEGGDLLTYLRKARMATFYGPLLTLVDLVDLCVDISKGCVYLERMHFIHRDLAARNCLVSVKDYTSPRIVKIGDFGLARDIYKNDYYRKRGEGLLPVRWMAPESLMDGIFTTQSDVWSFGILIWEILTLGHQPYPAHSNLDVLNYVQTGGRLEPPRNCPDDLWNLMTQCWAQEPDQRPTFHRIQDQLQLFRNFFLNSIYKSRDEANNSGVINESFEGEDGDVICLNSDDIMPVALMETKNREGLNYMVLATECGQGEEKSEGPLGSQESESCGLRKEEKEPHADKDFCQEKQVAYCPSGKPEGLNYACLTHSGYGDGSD
T2 sequence (P08922 whole entry, stated change not applied): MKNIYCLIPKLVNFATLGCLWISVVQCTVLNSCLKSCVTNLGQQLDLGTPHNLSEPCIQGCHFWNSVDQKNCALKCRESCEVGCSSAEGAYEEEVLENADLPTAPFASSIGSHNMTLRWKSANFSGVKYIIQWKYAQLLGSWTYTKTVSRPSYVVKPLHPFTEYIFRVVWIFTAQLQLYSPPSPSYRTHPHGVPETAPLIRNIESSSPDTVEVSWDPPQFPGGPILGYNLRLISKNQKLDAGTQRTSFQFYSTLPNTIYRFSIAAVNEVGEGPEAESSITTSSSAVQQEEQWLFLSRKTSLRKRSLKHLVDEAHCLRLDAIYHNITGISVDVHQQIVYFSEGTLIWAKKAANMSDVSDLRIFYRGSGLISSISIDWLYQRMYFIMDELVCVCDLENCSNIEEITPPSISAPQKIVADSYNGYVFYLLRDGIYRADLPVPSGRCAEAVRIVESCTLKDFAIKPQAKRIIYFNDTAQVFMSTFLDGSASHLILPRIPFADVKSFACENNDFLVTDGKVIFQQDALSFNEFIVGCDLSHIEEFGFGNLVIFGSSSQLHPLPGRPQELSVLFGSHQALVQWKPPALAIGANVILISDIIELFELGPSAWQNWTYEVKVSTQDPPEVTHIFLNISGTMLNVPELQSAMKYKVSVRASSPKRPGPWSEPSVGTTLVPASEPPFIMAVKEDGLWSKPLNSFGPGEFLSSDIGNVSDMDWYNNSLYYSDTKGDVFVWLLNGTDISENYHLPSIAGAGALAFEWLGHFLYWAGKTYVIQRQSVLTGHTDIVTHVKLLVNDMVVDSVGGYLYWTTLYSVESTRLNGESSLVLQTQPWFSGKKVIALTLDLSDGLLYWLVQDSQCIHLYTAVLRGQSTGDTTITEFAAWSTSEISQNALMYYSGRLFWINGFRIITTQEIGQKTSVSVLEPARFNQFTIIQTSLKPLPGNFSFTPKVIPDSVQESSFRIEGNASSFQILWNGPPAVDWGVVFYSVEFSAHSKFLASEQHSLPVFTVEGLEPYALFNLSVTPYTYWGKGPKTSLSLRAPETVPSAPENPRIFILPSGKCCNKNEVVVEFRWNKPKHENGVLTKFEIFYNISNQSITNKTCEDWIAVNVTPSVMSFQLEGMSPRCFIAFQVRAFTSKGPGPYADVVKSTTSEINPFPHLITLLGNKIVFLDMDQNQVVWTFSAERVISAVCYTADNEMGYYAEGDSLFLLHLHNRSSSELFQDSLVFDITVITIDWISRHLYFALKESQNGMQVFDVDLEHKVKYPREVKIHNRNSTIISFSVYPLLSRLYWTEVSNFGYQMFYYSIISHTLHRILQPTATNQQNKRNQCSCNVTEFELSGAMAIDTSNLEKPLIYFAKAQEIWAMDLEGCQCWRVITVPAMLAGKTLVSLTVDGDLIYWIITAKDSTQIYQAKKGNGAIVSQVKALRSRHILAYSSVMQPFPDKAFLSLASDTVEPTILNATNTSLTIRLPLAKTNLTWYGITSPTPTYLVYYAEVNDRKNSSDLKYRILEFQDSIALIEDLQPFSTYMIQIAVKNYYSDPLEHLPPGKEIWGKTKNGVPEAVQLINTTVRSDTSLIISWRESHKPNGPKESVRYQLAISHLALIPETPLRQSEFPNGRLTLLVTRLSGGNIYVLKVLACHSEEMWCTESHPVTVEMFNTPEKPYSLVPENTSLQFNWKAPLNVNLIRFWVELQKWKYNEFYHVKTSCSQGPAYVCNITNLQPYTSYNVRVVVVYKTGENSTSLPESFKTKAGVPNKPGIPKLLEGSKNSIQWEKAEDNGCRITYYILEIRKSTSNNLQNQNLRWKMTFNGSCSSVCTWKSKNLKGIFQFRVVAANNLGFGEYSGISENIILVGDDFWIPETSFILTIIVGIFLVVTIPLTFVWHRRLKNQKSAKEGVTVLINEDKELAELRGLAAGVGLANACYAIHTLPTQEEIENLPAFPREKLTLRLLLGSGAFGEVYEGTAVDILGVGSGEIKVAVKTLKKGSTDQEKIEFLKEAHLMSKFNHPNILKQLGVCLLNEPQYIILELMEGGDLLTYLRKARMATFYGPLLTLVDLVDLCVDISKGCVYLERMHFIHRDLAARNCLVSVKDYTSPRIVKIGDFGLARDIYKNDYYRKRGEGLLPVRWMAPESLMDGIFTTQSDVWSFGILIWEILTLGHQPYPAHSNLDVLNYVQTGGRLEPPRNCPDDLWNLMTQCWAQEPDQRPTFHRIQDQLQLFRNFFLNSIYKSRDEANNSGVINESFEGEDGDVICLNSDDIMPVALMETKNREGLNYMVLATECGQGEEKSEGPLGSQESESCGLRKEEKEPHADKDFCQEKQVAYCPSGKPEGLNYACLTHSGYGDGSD
Chain of Ba/F3 cells containing Ros1 with a mutation at the gatekeeper residue (L2026M) (P08922 whole entry L2026M, form open): as the sequence (P08922 whole entry, stated change not applied) above, with L2026M counted along it

SMILES | IC50 [1] | BaF3-ROS1-IL3 pIC50 [2] | Ba/F3 Ros1 L2026M (-IL-3) pIC50 [3] | CC50 [4] | EC50 [5] | melting point | CC50 [4, 6] | EC50 ([5]; HCC78 cells, 4 days, MTT) | HCC-78 PROL pEC50 ([5]; HCC78 cells, 4 days, MTT)
CC(C)c1ccc(COc2cc(F)c(-c3c(-c4ccncc4)nn4c3C(=O)NCC4)cn2)cc1 [Compound 73] | 15.8 nM | 7.9 | 7.4 | > 10000 nM | 126 nM | 207 °C |  |  | 
CC(C)c1ccc(COc2ccc(-c3c(-c4ccncc4)nn4c3C(=O)N(CC3COC(C)(C)O3)CC4)cc2)cc1 (stereo not drawn) [Compound 42] | 398 nM | 6.7 | 6.3 |  |  | 114 °C | > 10000 nM | 1260 nM | 
Cc1cc(C(C)C)ccc1COc1ccc(-c2c(-c3ccncc3)nn3c2C(=O)NCC3)cc1 [Compound 78] | 251 nM | 7.1 | 6.9 |  |  | 247 °C | > 10000 nM | 794 nM | 
Cc1cc(-c2c(-c3ccncc3)nn3c2C(=O)NCC3)cc(C)c1OCc1ccc(C(C)C)cc1 [Compound 29] | > 10000 nM | <5 | <5 | > 10000 nM | > 10000 nM | 260 °C |  |  | 
CC(C)c1ccc(COc2ccc(-c3c(-c4ccnc5[nH]ccc45)nn4c3C(=O)N(CCO)CC4)cc2)cc1 [Compound 156] | 63.1 nM | 8.0 | 7.0 |  |  | 219 °C | > 10000 nM | 20 nM | 
CC(C)c1ccc(COc2ccc(-c3c(-c4ccncc4)nn4c3C(=O)N(CCO)CC4)cc2)cn1 [Compound 81] | 63.1 nM | 7.3 | 6.5 | > 10000 nM | 158 nM | 93 °C |  |  | 
CC(C)c1ccc(COc2ccc(-c3c(-c4ccncc4)nn4c3C(=O)N(CCO)CC4)c(F)c2F)cc1 [Compound 20] | 100 nM | 6.9 | 7.0 | > 10000 nM | 1580 nM | 138 °C |  |  | 
CC(C)c1cc(F)c(COc2ccc(-c3c(-c4ccncc4)nn4c3C(=O)N(CCO)CC4)cc2)c(F)c1 [Compound 94] | 100 nM | 7.0 | 6.6 | > 10000 nM | 398 nM | 194 °C |  |  | 
COc1cc(-c2c(-c3ccncc3)nn3c2C(=O)NCC3)ncc1OCc1ccc(C(C)C)cc1 [Compound 72] | 63.1 nM | 7.2 | 6.0 | > 10000 nM | 251 nM | 231 °C |  |  | 
CC(C)c1cc(F)c(COc2ccc(-c3c(-c4ccncc4)nn4c3C(=O)N(CC(O)CO)CC4)cc2)cc1F (stereo not drawn) [Compound 98] | 251 nM | 6.8 | 6.6 |  |  | 184 °C | > 10000 nM |  | 6.5
COc1cc(-c2c(-c3ccncc3)nn3c2C(=O)NCC3)cc(OC)c1OCc1ccc(C(C)C)cc1 [Compound 35] | 5010 nM | 5.7 | 5.8 | > 10000 nM | > 10000 nM | 192 °C |  |  | 
CC(C)c1ccc(COc2ccc(-c3c(-c4ccncc4)nn4c3C(=O)N(CCO)CC4)cc2)cc1F [Compound 93] | 79.4 nM | 7.2 | 7.0 | > 10000 nM | 398 nM | 183 °C |  |  | 
COCCOc1cc(COc2ccc(-c3c(-c4ccncc4)nn4c3C(=O)NCC4)cc2)ccc1C(C)C [Compound 90] | 79.4 nM | 7.2 | 7.4 | > 10000 nM | 158 nM | 209 °C |  |  | 
COCCN1CCn2nc(-c3ccncc3)c(-c3ccc(OCc4ccc(C(C)C)cc4)cc3)c2C1=O [Compound 50] | 50.1 nM | 7.1 | 7.2 | > 10000 nM | 158 nM | 167 °C |  |  | 
CC(C)c1ccc(COc2ccc(-c3c(-c4ccncc4Cl)nn4c3C(=O)NCC4)cc2)cc1 [Compound 154] | 100 nM | 6.9 | 7.1 | > 10000 nM | 316 nM | 207 °C |  |  | 
O=C1c2c(-c3ccc(OCc4ccc(OC(F)(F)F)cc4)cc3F)c(-c3ccncc3)nn2CCN1CCO [Compound 206] | 39.8 nM | 7.5 | ~7.4 | > 10000 nM | 100 nM | 140 °C |  |  | 
CC(C)c1ccc(COc2ccc(-c3c(-c4ccncn4)nn4c3C(=O)N(CC(O)CO)CC4)cc2)cc1 (stereo not drawn) [Compound 161] | 50.1 nM | 7.1 | 6.7 |  |  | 209 °C | > 10000 nM | 316 nM | 
CC(C)c1ccc(COc2ccc(-c3c(-c4ccncc4)nn4c3C(=O)NC(CO)C4)cc2)cc1 (stereo not drawn) [Compound 193] | 79.4 nM | 7.3 | 6.3 | > 10000 nM | 200 nM | 254 °C |  |  | 
COc1cc(-c2c(-c3ccncc3)nn3c2C(=O)N(CCO)CC3)cc(OC)c1OCc1ccc(C(C)C)cc1 [Compound 36] | 5010 nM | 5.8 | 5.7 | > 10000 nM | > 10000 nM | 176 °C |  |  | 
O=C1c2c(-c3ccc(OCc4ccc(C5CC5)cc4)cc3)c(-c3ccncc3)nn2CCN1CCO [Compound 129] | 63.1 nM | 7.4 | 7.0 | > 10000 nM | 100 nM | 194 °C |  |  | 
CC(C)c1ccc(COc2ccc(-c3c(-c4ccnc5[nH]ccc45)nn4c3C(=O)NCC4)cc2)cc1 [Compound 155] | 31.6 nM | 7.8 | 7.5 | > 10000 nM | 79.4 nM | 266 °C |  |  | 
CC(C)c1ccc(COc2ccc(-c3c(-c4ccncc4)nn4c3C(=O)N(CC3CCCO3)CC4)cc2)cc1 (stereo not drawn) [Compound 55] | 126 nM | 7.0 | 6.8 | > 10000 nM | 794 nM | 165 °C |  |  | 
CC(C)c1ccc(COc2ccc(-c3c(-c4ccncc4)nn4c3C(=O)NCC4)cc2)cc1CCN [Compound 88] | 12.6 nM | 7.1 | 6.8 |  |  | 181 °C | > 10000 nM | 79.4 nM | 
CC(C)c1ccc(COc2ccc(-c3c(-c4ccncc4)nn4c3CN(CCO)CC4)cc2)cc1 [Compound 176] | 158 nM | 6.9 | 7.1 |  |  | 150 °C | > 10000 nM | 79.4 nM | 
CC(C)c1ccc(COC2CCN(c3c(-c4ccncc4)nn4c3C(=O)N(C)CC4)CC2)cc1 [Compound 215] | 126 nM | 7.0 | 7.2 |  |  | 140 °C | > 10000 nM | 251 nM | 
O=C1c2c(-c3ccc(OCc4ccc(C5CC5)nc4)cc3)c(-c3ccncc3)nn2CCN1CCO [Compound 139] | 126 nM | 6.8 | 6.0 | > 10000 nM | 100 nM | 97 °C |  |  | 

From patent US10280170B2, “Substituted 4,5,6,7-tetrahydro-pyrazolo[1,5-a]pyrazine derivatives and 5,6,7,8-tetrahydro-4H-pyrazolo[1,5-a][1,4]diazepine derivatives as Ros1 inhibitors” (Janssen Pharmaceutica NV, priority 2014, dated 2019)
